Among the data in US20240158385A1, “NOVEL COMPOUNDS” (Cerevance, Inc., priority 2021, published 2024) are IC50 values, retold here.

The first assay addresses T1, human KCNK13 (Homo sapiens, UniProt Q9HB14).
T1 construct: expressed in transfected cells
T1 sequence (Q9HB14 1-408): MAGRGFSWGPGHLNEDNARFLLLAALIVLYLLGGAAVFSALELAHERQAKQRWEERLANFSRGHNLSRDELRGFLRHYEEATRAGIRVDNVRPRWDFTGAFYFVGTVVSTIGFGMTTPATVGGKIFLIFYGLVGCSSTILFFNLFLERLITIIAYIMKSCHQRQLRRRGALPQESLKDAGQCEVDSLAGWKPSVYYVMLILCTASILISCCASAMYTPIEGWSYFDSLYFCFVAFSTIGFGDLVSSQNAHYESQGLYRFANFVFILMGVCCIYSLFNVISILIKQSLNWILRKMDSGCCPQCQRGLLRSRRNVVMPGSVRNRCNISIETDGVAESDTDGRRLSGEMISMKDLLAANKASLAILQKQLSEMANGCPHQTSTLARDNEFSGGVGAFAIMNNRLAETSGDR
In words: KCNK13 antagonist activity, thallium (Tl+) flux FLIPR assay. The format is cell-based.
Details: not given
The method, then:
KCNK13 antagonist activity was determined by measuring changes in intracellular Thallium (Tl^+) concentrations using a Tl^+ sensitive fluorescent dye. The changes in fluorescent signal were monitored by Fluorescent Imaging Plate Reader (FLIPR™) technology available from Molecular Devices, LLC, US. KCNK13 mediated increases in intracellular Tl+concentration were readily detected by addition of a thallium sulfate stimulus. 24 hours prior to the assay, human embryonic kidney 293 cells (HEK 293 cells) stably expressing human KCNK13 were seeded in cell culture medium in PDL coated black, clear-bottom 384-well plates (commercially available from Corning Inc., 356663) and grown overnight at 37° C., 5% CO2. On the day of the assay, cell culture media was removed and cells were loaded with potassium dye (commercially sold by Molecular Devices, LLC, US, R8222) for 1 hour at room temperature in the dark. Test compounds (at 10 point half log concentration response curves from […]) were added to cells for 15 minutes prior to the addition of thallium sulfate to all wells. The IC50 values were determined from ten point concentration response curves. Curves were generated using the average of two wells for each data point.
For the compound `Nc1nonc1-c1nc2cccnc2n1Cc1cncnc1` [Example 15, 4-[3-(pyrimidin-5-ylmethyl)imidazo[4,5-b]pyridin-2-yl]-1,2,5-oxadiazol-3-amine], the 50% inhibitory concentration (IC50) (as a rule, the concentration at which inhibition is half-maximal) is below 200 nM.

On to `Nc1nonc1-c1nc2cccnc2n1Cc1ccc(Cl)nc1` [Example 23, 4-[3-[(6-chloropyridin-3-yl)methyl]imidazo[4,5-b]pyridin-2-yl]-1,2,5-oxadiazol-3-amine], for which the 50% inhibitory concentration (IC50) is below 50 nM.

`Cc1nonc1-c1nc2cccnc2n1Cc1ccc(Cl)nc1` [Example 24, 3-[3-[(6-chloropyridin-3-yl)methyl]imidazo[4,5-b]pyridin-2-yl]-4-methyl-1,2,5-oxadiazole]: the IC50 was below 100 nM.

The compound `Nc1nonc1-c1nc2cc(F)cnc2n1Cc1ccc(Cl)nc1` [Example 29, 4-[3-[(6-chloropyridin-3-yl)methyl]-6-fluoro-imidazo[4,5-b]pyridin-2-yl]-1,2,5-oxadiazol-3-amine] yielded an IC50 below 50 nM.

In the case of `Cc1nonc1-c1nc2c(F)cccc2n1Cc1ccc(Cl)nc1` [Example 39, 3-[1-[(6-chloropyridin-3-yl)methyl]-4-fluoro-benzimidazol-2-yl]-4-methyl-1,2,5-oxadiazole], the IC50 was below 200 nM.

Staying with this assay, now noted: HEK 293 cells stably expressing human KCNK13; Tl+ sensitive dye, FLIPR; compounds 15 minutes prior to thallium sulfate; 10 point half log curves from 10 PM; read-out: hKCNK13 IC50.
Regarding `COc1ccc(Cn2c(-c3nonc3C)nc3cccnc32)cn1` [Example 16, 3-[3-[(6-methoxypyridin-3-yl)methyl]imidazo[4,5-b]pyridin-2-yl]-4-methyl-1,2,5-oxadiazole], the half-inhibitory concentration (IC50) is below 200 nM.

As to `Cc1nonc1-c1nc2cccnc2n1Cc1ccc(C(F)(F)F)nc1` [Example 17, 3-methyl-4-[3-[[6-(trifluoromethyl)pyridin-3-yl]methyl]imidazo[4,5-b]pyridin-2-yl]-1,2,5-oxadiazole], the IC50 was below 500 nM.

Turning to `Cc1nonc1-c1nc2cccnc2n1Cc1ccc(C#N)nn1` [Example 18, 6-[[2-(4-methyl-1,2,5-oxadiazol-3-yl)imidazo[4,5-b]pyridin-3-yl]methyl]pyridazine-3-carbonitrile], the 50% inhibitory concentration (IC50) is below 500 nM.

Regarding `Nc1nonc1-c1nc2cccnc2n1Cc1ccc(C(F)(F)F)nc1` [Example 19, 4-[3-[[6-(trifluoromethyl)pyridin-3-yl]methyl]imidazo[4,5-b]pyridin-2-yl]-1,2,5-oxadiazol-3-amine], the IC50 was below 500 nM.

Turning to `Cc1nonc1-c1nc2cccnc2n1Cc1cccnn1` [Example 20, 3-methyl-4-[3-(pyridazin-3-ylmethyl)imidazo[4,5-b]pyridin-2-yl]-1,2,5-oxadiazole], the IC50 was below 1000 nM.

Take `Nc1nonc1-c1nc2c(F)ccc(F)c2n1Cc1cccnc1` [Example 22, 4-[4,7-difluoro-1-(pyridin-3-ylmethyl)benzimidazol-2-yl]-1,2,5-oxadiazol-3-amine]: the IC50 was below 50 nM.

As to `Cc1nonc1-c1nc2cc(F)cc(F)c2n1Cc1cccnc1` [Example 27, 3-[5,7-difluoro-1-(pyridin-3-ylmethyl)benzimidazol-2-yl]-4-methyl-1,2,5-oxadiazole], the half-inhibitory concentration (IC50) was below 50 nM.

Regarding `N#Cc1ncc(Cn2c(-c3nonc3N)nc3c(F)ccc(F)c32)cn1` [Example 28, 5-[[2-(4-amino-1,2,5-oxadiazol-3-yl)-4,7-difluoro-benzimidazol-1-yl]methyl]pyrimidine-2-carbonitrile], the IC50 is below 50 nM.

As to `Nc1nonc1-c1nc2cc(Br)ccc2n1Cc1cccnc1` [Example 33, 4-[5-bromo-1-(pyridin-3-ylmethyl)benzimidazol-2-yl]-1,2,5-oxadiazol-3-amine], the IC50 is below 50 nM.

For `CN(C)c1ccc2c(c1)nc(-c1nonc1N)n2Cc1cccnc1` [Example 34, 4-[5-(dimethylamino)-1-(pyridin-3-ylmethyl)benzimidazol-2-yl]-1,2,5-oxadiazol-3-amine], the concentration for half-maximal inhibition (IC50) is below 1000 nM.

Turning to `N#Cc1cnc(Cn2c(-c3nonc3N)nc3cccc(F)c32)cn1` [Example 35, 5-[[2-(4-amino-1,2,5-oxadiazol-3-yl)-7-fluoro-benzimidazol-1-yl]methyl]pyrazine-2-carbonitrile], the IC50 is below 50 nM.

As to `N#Cc1cnc(Cn2c(-c3nonc3N)nc3c(F)cccc32)cn1` [Example 36, 5-[[2-(4-amino-1,2,5-oxadiazol-3-yl)-4-fluoro-benzimidazol-1-yl]methyl]pyrazine-2-carbonitrile], the 50% inhibitory concentration (IC50) was below 100 nM.

In the case of `Cc1nonc1-c1nc2ccccc2n1Cc1ccc(C#N)nc1` [Example 37, 5-[[2-(4-methyl-1,2,5-oxadiazol-3-yl)benzimidazol-1-yl]methyl]pyridine-2-carbonitrile], the IC50 is below 50 nM.

As for `Cc1nonc1-c1nc2cccc(F)c2n1Cc1ccc(Cl)nc1` [Example 38, 3-[1-[(6-chloropyridin-3-yl)methyl]-7-fluoro-benzimidazol-2-yl]-4-methyl-1,2,5-oxadiazole], the IC50 was below 50 nM.

As to `Cc1nonc1-c1nc2c(F)cccc2n1Cc1ccc(C#N)nc1` [Example 40, 5-[[4-fluoro-2-(4-methyl-1,2,5-oxadiazol-3-yl)benzimidazol-1-yl]methyl]pyridine-2-carbonitrile], the concentration for half-maximal inhibition (IC50) was below 100 nM.

In the case of `Cc1nonc1-c1nc2cccc(F)c2n1Cc1cnc(C#N)cn1` [Example 41, 5-[[7-fluoro-2-(4-methyl-1,2,5-oxadiazol-3-yl)benzimidazol-1-yl]methyl]pyrazine-2-carbonitrile], the IC50 was below 100 nM.

In the case of `Cc1nonc1-c1nc2c(F)cccc2n1Cc1cnc(C#N)cn1` [Example 42, 5-[[4-fluoro-2-(4-methyl-1,2,5-oxadiazol-3-yl)benzimidazol-1-yl]methyl]pyrazine-2-carbonitrile], the half-maximal inhibitory concentration (IC50) is below 1000 nM.

For `COc1ccc(Cn2c(-c3nonc3C)nc3cccc(F)c32)cn1` [Example 43, 3-[7-fluoro-1-[(6-methoxypyridin-3-yl)methyl]benzimidazol-2-yl]-4-methyl-1,2,5-oxadiazole], the IC50 is below 1000 nM.

On to `Cc1nonc1-c1nc2cccc(F)c2n1Cc1cnc(C#N)nc1` [Example 44, 5-[[7-fluoro-2-(4-methyl-1,2,5-oxadiazol-3-yl)benzimidazol-1-yl]methyl]pyrimidine-2-carbonitrile], for which the IC50 is below 50 nM.

For `Cc1nonc1-c1nc2c(F)cccc2n1Cc1cnc(C#N)nc1` [Example 45, 5-[[4-fluoro-2-(4-methyl-1,2,5-oxadiazol-3-yl)benzimidazol-1-yl]methyl]pyrimidine-2-carbonitrile], the IC50 is below 100 nM.

Turning to `Cc1nonc1-c1nc2cccc(F)c2n1Cc1ccc(C#N)nn1` [Example 46, 6-[[7-fluoro-2-(4-methyl-1,2,5-oxadiazol-3-yl)benzimidazol-1-yl]methyl]pyridazine-3-carbonitrile], the IC50 is below 100 nM.

Consider `Cc1nonc1-c1nc2c(F)cccc2n1Cc1ccc(C#N)nn1` [Example 47, 6-[[4-fluoro-2-(4-methyl-1,2,5-oxadiazol-3-yl)benzimidazol-1-yl]methyl]pyridazine-3-carbonitrile], for which the half-maximal inhibitory concentration (IC50) was below 200 nM.

`CCOc1ccc(Cn2c(-c3nonc3C)nc3c(F)cccc32)cn1` [Example 48, 3-[1-[(6-ethoxypyridin-3-yl)methyl]-4-fluoro-benzimidazol-2-yl]-4-methyl-1,2,5-oxadiazole]: the IC50 was below 1000 nM.

In the case of `Cc1nonc1-c1nc2cccnc2n1Cc1ccc(C#N)nc1` [Example 50, 5-[[2-(4-methyl-1,2,5-oxadiazol-3-yl)imidazo[4,5-b]pyridin-3-yl]methyl]pyridine-2-carbonitrile], the 50% inhibitory concentration (IC50) is below 100 nM.

On to `N#Cc1ccc(Cn2c(-c3nonc3N)nc3cccnc32)cn1` [Example 51, 5-[[2-(4-amino-1,2,5-oxadiazol-3-yl)imidazo[4,5-b]pyridin-3-yl]methyl]pyridine-2-carbonitrile], for which the IC50 was below 500 nM.

Regarding `Cc1nonc1-c1nc2cccc(F)c2n1Cc1ccc(C#N)nc1` [Example 52, 5-[[7-fluoro-2-(4-methyl-1,2,5-oxadiazol-3-yl)benzimidazol-1-yl]methyl]pyridine-2-carbonitrile], the concentration for half-maximal inhibition (IC50) was below 100 nM.

Take `COc1ccc(Cn2c(-c3nonc3C)nc3ccccc32)cn1` [Example 53, 3-[1-[(6-methoxypyridin-3-yl)methyl]benzimidazol-2-yl]-4-methyl-1,2,5-oxadiazole]: the concentration for half-maximal inhibition (IC50) was below 100 nM.

Take `Cc1nonc1-c1nc2ccccc2n1Cc1ccc(O)nc1` [Example 54, 5-[[2-(4-methyl-1,2,5-oxadiazol-3-yl)benzimidazol-1-yl]methyl]pyridin-2-ol]: the IC50 is below 500 nM.

Take `Cc1nonc1-c1nc2ccc(F)cc2n1Cc1ccc(C#N)nc1` [Example 55, 5-[[6-fluoro-2-(4-methyl-1,2,5-oxadiazol-3-yl)benzimidazol-1-yl]methyl]pyridine-2-carbonitrile]: the concentration for half-maximal inhibition (IC50) was below 100 nM.
